Assays:
[1] = tested on: Tg2576 mice; experiment: cerebral Aβ levels by ELISA in luteolin-treated Tg2576 mice; assay type: in vivo; conditions: 20 mg/kg i.p. daily for 30 days
Procedure: Sixteen (8♂/8♀) Tg2576 mice (Taconic, Germantown, N.Y.) were used; 8 mice received luteolin, and the other 8 received phosphate buffered saline (PBS). Beginning at 8 months of age, Tg2576 mice were intraperitoneally injected with luteolin (20 mg/kg) or PBS daily for 30 days based on previously described methods. These mice were then sacrificed at 9 months of age for analyses of Aβ levels and Aβ load in the brain according to previously described methods. Animals were housed and maintained in the College of Medicine Animal Facility at the University of South Florida (USF), and all experiments were in compliance with protocols approved by the USF Institutional Animal Care and Use Committee.
Eight month-old Tg2576 mice were treated with 20 mg/kg luteolin administered by daily intraperitoneal injection for 30 days to validate the above findings in vivo. […] Phospho-GSK-3α/β-positive neuronal cells were examined under bright-field using an Olympus BX-51 microscope.
Brain homogenates were immunoprecipitated by PS1 antibody and probed for APP to confirm the proposed mechanism. […] To assess this decrease, ELISA was conducted on both soluble and insoluble Aβ1-40, 42.

[2] = tested on: β-catenin; experiment: β-catenin after luteolin treatment; assay type: cell-based; conditions: data not shown
[3] = tested on: PS1-APP association; experiment: PS1-APP association, immunoprecipitation/Western blot in SweAPP N2a cells; assay type: cell-based, murine; conditions: 20 μM for 4 hrs or siRNA transfection
Procedure: (§1) Cultured cells or mouse brain were lysed in ice-cold lysis buffer described above, and an aliquot corresponding to 50 μg of total protein was electrophoretically separated using 12% Tris-HCl or 16.5% Tris-tricine gels. Electrophoresed proteins were then transferred to PVDF membranes, washed in dH2O, and blocked for 1 hr at ambient temperature in Tris-buffered saline (TBS; Bio-Rad) containing 5% (w/v) non-fat dry milk. After blocking, membranes were hybridized for 1 hr at ambient temperature with various primary antibodies. Membranes were then washed 3× for 5 min each in dH2O and incubated for 1 hr at ambient temperature with the appropriate HRP-conjugated secondary antibody (1:1,000). All antibodies were diluted in TBS containing 5% (w/v) of non-fat dry milk. Blots were developed using the luminol reagent (Pierce Biotechnology). Densitometric analysis was done as previously described using a FluorS Multiimager with Quantity One™ software. Immunoprecipitation was performed for detection of sAPP-α, sAPP-β and Aβ by incubating 200 μg of total protein of each sample with various sequential combinations of 6E10 (1:100) and/or 22C11 (1:100) antibodies overnight with gentle rocking at 4° C., and 10 μL of 50% protein A-Sepharose beads were then added to the sample (1:10; Sigma) prior to gentle rocking for an additional 4 hrs at 4° C. Following washes with 1× cell lysis buffer, samples were subjected to Western blot as described above. Antibodies used for Western blot included the APP-carboxyl-terminal antibody (1:50)), amino-terminal APP antibody (clone 22C11), or 6E10 (1:1,000), or actin antibody (1:1,500; as an internal reference control). γ-secretase activity was quantified in cell lysates using available kits (R&D Systems, Minneapolis, Minn.), based on secretase-specific peptides conjugated to fluorogenic reporter molecules.
Cell lysates of luteolin-treated SweAPP N2a cells were immunoprecipitated by PS1 antibody and probed for APP to clarify how phospho-PS1 CTF isoforms may regulate γ-secretase activity, seen in FIGS. 26(A) through 27(B). As illustrated in FIGS. 26(A) and (B), the APP-PS1 association is disrupted by luteolin, SB-415286 treatment, and GSK-3α siRNA. […] Thus, GSK-3α or, more specifically, downstream phosphorylation of the PS1 CTF plays an essential role in regulating the association of γ-secretase complex with its APP substrate.

[4] = tested on: PS1; experiment: Western blot of PS1 C-terminal fragment phosphorylation in SweAPP N2a cells; assay type: cell-based, murine
Procedure: as §1
The two bands of highest molecular weight, approximately 20 kD and 18 kD in size, represent phosphorylated PS1 CTFs with a smaller 16 kD band representing the more common CTF product indicative of PS1 endoproteolytic cleavage.
To confirm that the 20 kD and 18 kD bands were phosphorylated PS1 isoforms, SweAPP N2a cells were treated with luteolin (20 μM) prior to lysis and cell lysates incubated with calf intestine alkaline phosphatase (CIAP) (Fermentas, Hanover, Md.), to dephosphorylate any potential phosphorylated proteins, to eliminate skewing of electrophorectic mobilities. Following 30 minutes of incubation, the 20 kD band is not evident in the CIAP treated lysates, seen in FIGS. 21(A) through 22, and the 18 kD band reduced while endogenous CTF, 16 kD, appears to accumulate. When compared to lysates incubated with only reaction buffer, phosphorylated residues decrease in a time dependent manner, shown by the 20 kD CTF:16 kD CTF. […] Luteolin affects PS1 phosphorylation and may indicate a means by which γ-secretase activity may be regulated.
To determine if this phenomenon was specifically attributable to luteolin treatment or more generally in regards to GSK-3 inhibition, SweAPP N2a cells were treated with a range of doses of the GSK-3 inhibitor SB-415286 (BIOMOL®, Plymouth Meeting, Pa.). […] FIG. 24(B). GSK-3α and β was successfully knocked-down (>70%, data not shown) with siRNA in SweAPP N2a cells, substantiating the role of GSK-3α in this luteolin-mediated PS1 processing. […]

O=c1cc(-c2ccc(O)c(O)c2)oc2cc(O)cc(O)c12 [luteolin]
reduction of soluble Aβ1-40 in brain homogenates [1]: 25% | reduction of soluble Aβ1-42 in brain homogenates [1]: 49% | β-catenin [2]: remains unaffected | ratio of APP to actin (full-length APP levels) ([3]; 6E10 Western blot of lysates): no significant changes | APP-PS1 association ([3]; IP with anti-PS1 CTF, 6E10 blot): disrupted | PS1 CTF phosphorylation (phospho-PS1 CTF to PS1 CTF ratio) [4]: PS1 CTF phosphorylation increases | full-length PS1 or PS1 NTF protein levels ([4]; range of doses, 4 hrs): no significant effect

Reference: US8802638B1, “Flavonoid treatment of glycogen synthase kinase-based disease” (University of South Florida, priority 2007, dated 2014)
